Measurements as given in patent EP0182152B1, “Antitumor antibiotics (LL-E33288 Complex)” (AMERICAN CYANAMID COMPANY, priority 1984, dated 1986).

Tests used:
Colon 26 tumor = test: Colon 26 Adenocarcinoma Test; assay type: in vivo, CD2F1 female mice; settings: Table XII, control 18.5 days
Source text: (§1) Certain in vivo testing systems and protocols have been developed by the National Cancer Institute for testing compounds to determine their suitability as anti-neoplastic agents. These have been reported in "Cancer Chemotherapy Reports", Part III, Vol. 3, No. 2 (1972), Geran, et al. These protocols have established standardized screening tests which are generally followed in the field of testing for antitumor agents. Of these systems, lymphocytic leukemia P388, melanotic melanoma B16, L1210 leukemia and colon 26 adenocarcinoma are particularly significant to the present invention. These neoplasms are utilized for testing as transplantable tumors in mice. Generally, significant anti-tumor activity, shown in these protocols by a percentage increase of mean survival times of the treated animals (T) over the control animals (C), is indicative of similar results in human leukemias and solid tumors.
The animals used were CD2F1 female mice weighing a minimum of 17 g and all within a 3 g weight range. There were 5 or 6 mice per test group with three groups of 5 or 6 animals used as untreated controls for each test. The tumor implant was by intraperitoneal (or subcutaneous) injection of 0.5 ml of a 2% Colon 26 tumor brei in Eagle's MEM medium containing antibiotics. LL-E33288 antibiotics were tested in the Colon 26 system as a complex (Bromo-complex) of all components. The test compounds were administered intraperitoneally on days 1, 5 and 9 (relative to tumor implant doses). The mice were weighed and deaths recorded on a regular basis for 30 days. The median survival times for treated (T)/control (C) animals were calculated. The positive control compound was Cisplatin. If T/C X 100 (%) is 130 or over, the tested compound is considered to have significant anti-tumor activity.
(§2) In the same manner, the following iodo-components were tested for antineoplastic activity.

[1] = tested on: lymphocytic leukemia L1210; test: Lymphocytic Leukemia L1210 Test; assay type: in vivo, BDF1 mice; settings: Table XI, control 9 days
Source text: as §1
The animals used were BDF1 mice, all of one sex, weighing a minimum of 17 g and all within a 3 g weight range. There were 6 mice in each test group and 18 in control groups. The tumor transplant was by intraperitoneal injection of 0.5 ml of lymphocytic leukemia L1210 at a concentration of 10^5 cells per mouse. LL-E33288 antibiotics were tested in the L1210 system both as the individual β1-Br component and as a complex of all components (Bromo-complex). The test compounds were administered on days 1, 5 and 9 or days 1 through 9 (relative to tumor inoculation) at various doses. The mice were weighed and survivors recorded on a regular basis for 30 days. The median survival time and the ratio of survival time for treated (T)/control (C) animals were calculated. The positive control compound was 1,4-dihydroxy-5,8-bis[[2-(2-hydroxyethylamino)ethyl]amino]anthraquinone dihydrochloride or Cisplatin given intraperitoneally at the indicated dose. If T/C X 100 (%) is 125 or over, the tested compound is considered to have significant anti-tumor activity.
as §2

[2] = tested on: lymphocytic leukemia P388; test: Lymphocytic Leukemia P388 Test; assay type: in vivo, BDF1 mice; settings: Table IX
Source text: as §1
The animals used were BDF1 mice, all of one sex, weighing a minimum of 17 g and all within a 3 g weight range. There were 5 or 6 mice per test group. The tumor transplant was by intraperitoneal injection of 0.5 ml of dilute ascitic fluid containing 10^6 cells of lymphocytic leukemia P388. LL-E33288 antibiotics were tested in the P388 system both as the individual β1-Br and […] components and as a complex of all components (Bromo-complex). The test compounds were administered intrapertioneally at a volume of 0.5 ml in 0.2% Klucel in normal saline on days 1, 5 and 9 (relative to tumor inoculation) at the indicated doses. The mice were weighed and the survivors recorded on a regular basis for 30 days. The median survival time and the ratio of survival time for treated (T)/control (C) animals were calculated. The positive control compound was Cisplatin given as an intraperitioneal injection in 0.5 ml of 0.2% Klucel on days 1, 5 and 9 at the indicated doses.
If T/C X 100 (%) is 125 or over, the tested compound is considered to have significant anti-tumor activity.
as §2

melanotic melanoma B16 = test: Melanotic Melanoma B16 Test; assay type: in vivo, BDF1 mice; settings: Table X, control value not given
Source text: as §1
The animals used were BDF1 mice, all of the same sex, weighing a minimum of 17 g and all within a 3 g weight range. There are normally 6 animals per test group. A 1 g portion of melanotic melanoma β16 tumor was homogenized in 10 ml of cold balanced salt solution and a 0.5 ml aliquot of the homogenate was implanted intraperitoneally into each of the test mice. LL-E33288 antibiotics were tested in the β16 system both as the individual β1-Br and γ1-Br components and as a complex of all components (Bromo-complex). The test compounds were administered intraperitioneally on days 1 through 9 (relative to tumor inoculation) at various doses. The mice were weighed and survivors recorded on a regular basis for 60 days. The median survival time and the ratio of survival time for treated (T)/control (C) animals were calculated. The positive control compounds were Cisplatin or Adriamycin. The results of this test appear in Table V. If T/C X 100 (%) is 125 or over, the tested compound is considered to have significant anti-tumor activity.
as §2

[3] = Test 1, dose .00015 mg/kg, control 13 days
[4] = Test 1, dose .0003 mg/kg, control 13 days
[5] = Test 1, dose .0006 mg/kg, control 13 days
[6] = Test 1, dose .00125 mg/kg, control 13 days
[7] = Test 1, dose .0025 mg/kg, control 13 days
[8] = Test 1, dose .005 mg/kg, control 13 days
[9] = Test 2, dose - .00125 mg/kg, control 11 days
[10] = Test 2, dose .00015 mg/kg, control 11 days
[11] = Test 2, dose .0003 mg/kg, control 11 days
[12] = Test 2, dose .0006 mg/kg, control 11 days
[13] = Test 2, dose .0025 mg/kg, control 11 days
[14] = Test 2, dose .005 mg/kg, control 11 days
[15] = Test 2, dose .01 mg/kg, control 11 days

## CCN[C@H]1CO[C@@H](O[C@H]2[C@H](O[C@H]3C#CC=CC#C[C@@]4(O)CC(=O)C(NC(=O)OC)=C3/C4=C\CSSSC)O[C@H](C)[C@@H](NO[C@H]3C[C@H](O)[C@H](SC(=O)c4c(C)c(I)c(O[C@@H]5O[C@@H](C)[C@H](O)[C@@H](OC)[C@H]5O)c(OC)c4OC)[C@@H](C)O3)[C@@H]2O)C[C@@H]1OC (stereo in doubt) [LL-E33288γ1-I]
Colon 26 tumor; dose ,0006 mg/kg
  Median Survival: 23.5 days
  T/C x 100: 127%
Colon 26 tumor; dose .00007 mg/kg
  Median Survival: 17 days
  T/C x 100: 92%
Colon 26 tumor; dose .00015 mg/kg
  Median Survival: 17.5 days
  T/C x 100: 95%
Colon 26 tumor; dose .0003 mg/kg
  Median Survival: 20 days
  T/C x 100: 108%
Colon 26 tumor; dose .00125 mg/kg
  Median Survival: 22.5 days
  T/C x 100: 122%
Colon 26 tumor; dose .0025 mg/kg
  Median Survival: 27 days
  T/C x 100: 146%
Colon 26 tumor; dose .005 mg/kg
  Median Survival: 25.5 days
  T/C x 100: 138%
Colon 26 tumor; dose .01 mg/kg
  Median Survival: 11 days
  T/C x 100: 59%
[1]; dose .0006 mg/kg
  Median Survival: 10 days
  T/C x 100: 111%
[1]; dose .0012 mg/kg
  Median Survival: 10.5 days
  T/C x 100: 117%
[1]; dose .0025 mg/kg
  Median Survival: 11 days
  T/C x 100: 122%
[1]; dose .005 mg/kg
  Median Survival: 14 days
  T/C x 100: 156%
[1]; dose .01 mg/kg
  Median Survival: 8 days
  T/C x 100: 89%
[2]; [3]
  Median Survival: 15 days
  T/C x 100: 115%
[2]; [4]
  Median Survival: 15.5 days
  T/C x 100: 119%
[2]; [5]
  Median Survival: 18 days
  T/C x 100: 138%
[2]; [6]
  Median Survival: 18.5 days
  T/C x 100: 142%
[2]; [7]
  Median Survival: 22 days
  T/C x 100: 169%
[2]; [8]
  Median Survival: >25.5 days
  T/C x 100: >196%
[2]; [9]
  Median Survival: 18.5 days
  T/C x 100: 168%
[2]; [10]
  Median Survival: 14 days
  T/C x 100: 127%
[2]; [11]
  Median Survival: 14 days
  T/C x 100: 127%
[2]; [12]
  Median Survival: 16 days
  T/C x 100: 145%
[2]; [13]
  Median Survival: 22.5 days
  T/C x 100: 205%
[2]; [14]
  Median Survival: 18 days
  T/C x 100: 164%
[2]; [15]
  Median Survival: 11 days
  T/C x 100: 100%
Melanotic melanoma B16; dose .00007 mg/kg
  Median Survival: 30.5 days
  T/C x 100: 179%
Melanotic melanoma B16; dose .00015 mg/kg
  Median Survival: 33.5 days
  T/C x 100: 197%
Melanotic melanoma B16; dose .0003 mg/kg
  Median Survival: 35.5 days
  T/C x 100: 209%
Melanotic melanoma B16; dose .0006 mg/kg
  Median Survival: 42.5 days
  T/C x 100: 250%
Melanotic melanoma B16; dose .00125 mg/kg
  Median Survival: 27 days
  T/C x 100: 159%
Melanotic melanoma B16; dose .0025 mg/kg
  Median Survival: 26.5 days
  T/C x 100: 156%
